The source of these data is patent US6204282A, “Benzimidazole compounds that are vitronectin receptor antagonists” (Schering Corporation, priority 1999, dated 2001).

In the assay the target is αllbβ3 receptor (Homo sapiens, UniProt P05106+P08514). The assay is described as follows: similar competitive assay with purified αllbβ3 receptor and 125I-echistatin (specificity index versus αvβ3). Type of assay: binding. Conditions: IC50 αllbβ3 / IC50 αvβ3. An excerpt: The specificity index, which is a measure of the relative binding affinity for αvβ3 versus αllbβ3, may be determined by dividing the IC50 value for αllbβ3by the IC50 value for αvβ3.
Chain of αllbβ3 receptor (P08514 32-1039): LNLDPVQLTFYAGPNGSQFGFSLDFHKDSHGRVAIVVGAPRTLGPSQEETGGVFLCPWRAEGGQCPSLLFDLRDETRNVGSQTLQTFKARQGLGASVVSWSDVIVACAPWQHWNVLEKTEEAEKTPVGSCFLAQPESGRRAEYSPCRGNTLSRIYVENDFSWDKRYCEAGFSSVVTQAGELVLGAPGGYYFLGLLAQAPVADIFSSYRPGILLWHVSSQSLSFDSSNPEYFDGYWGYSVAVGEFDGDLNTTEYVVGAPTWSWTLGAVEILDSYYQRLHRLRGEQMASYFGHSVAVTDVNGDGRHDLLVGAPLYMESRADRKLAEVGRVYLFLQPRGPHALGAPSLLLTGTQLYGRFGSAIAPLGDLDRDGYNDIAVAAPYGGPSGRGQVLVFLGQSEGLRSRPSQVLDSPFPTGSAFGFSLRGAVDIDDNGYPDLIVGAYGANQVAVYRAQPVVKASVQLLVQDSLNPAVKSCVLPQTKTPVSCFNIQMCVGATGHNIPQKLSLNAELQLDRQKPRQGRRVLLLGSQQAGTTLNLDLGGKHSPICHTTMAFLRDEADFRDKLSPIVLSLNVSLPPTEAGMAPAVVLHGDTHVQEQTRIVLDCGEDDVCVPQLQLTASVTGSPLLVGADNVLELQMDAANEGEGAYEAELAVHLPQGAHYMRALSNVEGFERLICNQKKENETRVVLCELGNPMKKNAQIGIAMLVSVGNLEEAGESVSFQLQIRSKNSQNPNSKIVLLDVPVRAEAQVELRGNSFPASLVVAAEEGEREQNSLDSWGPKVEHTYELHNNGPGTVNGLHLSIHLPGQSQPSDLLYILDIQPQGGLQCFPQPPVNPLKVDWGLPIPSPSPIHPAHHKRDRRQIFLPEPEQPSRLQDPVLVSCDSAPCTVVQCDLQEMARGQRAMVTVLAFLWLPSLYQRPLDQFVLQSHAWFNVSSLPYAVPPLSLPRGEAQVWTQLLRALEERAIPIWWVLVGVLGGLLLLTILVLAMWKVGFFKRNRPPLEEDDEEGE
Chain of αllbβ3 receptor (P05106 27-788): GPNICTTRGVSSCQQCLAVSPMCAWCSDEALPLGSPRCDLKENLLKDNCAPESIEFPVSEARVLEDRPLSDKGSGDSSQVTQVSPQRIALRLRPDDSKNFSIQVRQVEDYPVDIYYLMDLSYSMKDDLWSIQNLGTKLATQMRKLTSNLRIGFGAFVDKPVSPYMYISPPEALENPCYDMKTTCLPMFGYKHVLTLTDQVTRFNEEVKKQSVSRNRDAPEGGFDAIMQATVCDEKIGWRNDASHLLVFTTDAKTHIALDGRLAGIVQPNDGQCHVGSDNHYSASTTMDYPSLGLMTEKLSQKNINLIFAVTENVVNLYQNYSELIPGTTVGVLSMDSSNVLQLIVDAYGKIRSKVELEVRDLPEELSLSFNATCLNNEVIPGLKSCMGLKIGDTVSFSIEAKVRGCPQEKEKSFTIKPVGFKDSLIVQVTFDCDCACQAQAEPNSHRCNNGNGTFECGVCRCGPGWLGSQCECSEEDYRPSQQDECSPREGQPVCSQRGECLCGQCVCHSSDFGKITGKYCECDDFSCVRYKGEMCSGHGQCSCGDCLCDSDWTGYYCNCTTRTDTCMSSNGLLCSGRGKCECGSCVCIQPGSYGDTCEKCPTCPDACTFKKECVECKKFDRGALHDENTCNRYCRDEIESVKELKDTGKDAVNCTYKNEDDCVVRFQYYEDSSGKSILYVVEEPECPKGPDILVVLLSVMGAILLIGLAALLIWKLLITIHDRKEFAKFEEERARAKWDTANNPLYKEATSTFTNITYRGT

Turning to `CC(C)(C)OC(=O)N[C@@H](CNC(=O)c1ccc(CN(Cc2nc3ccccc3[nH]2)C(=O)CCC2CCCC2)cc1)C(=O)O` [Example 5-64], the “SPECIFICITY αIIb β3/αvβ3 (specificity index)” value was 499.
Next, `O=C(O)CC(NC(=O)c1ccc(CNCc2nc3ccccc3[nH]2)cc1)c1ccccc1` (stereo not shown) [Example 5-65]: 0.4; `CC(=O)N(Cc1ccc(C(=O)NC(CC(=O)O)c2ccccc2)cc1)Cc1nc2ccccc2[nH]1` (stereo not shown) [Example 5-66]: 0.4; `COCC(=O)N(Cc1ccc(C(=O)NC(CC(=O)O)c2ccccc2)cc1)Cc1nc2ccccc2[nH]1` (stereo not shown) [Example 5-67]: 0.5.
The figure for `O=C(O)CC(NC(=O)c1ccc(CN(Cc2nc3ccccc3[nH]2)C(=O)CCc2ccccc2)cc1)c1ccccc1` (stereo not shown) [Example 5-68] is 0.4; for `O=C(O)CC(NC(=O)c1ccc(CN(Cc2nc3ccccc3[nH]2)C(=O)CCC2CCCC2)cc1)c1ccccc1` (stereo not shown) [Example 5-69] it is 0.4.
The figure for `O=C(NC(CNC(=O)c1ccc(CNCCc2nc3ccccc3[nH]2)cc1)C(=O)O)OCc1ccccc1` (stereo not shown) [Example 5-70] is 0.2; for `CC(=O)N(CCc1nc2ccccc2[nH]1)Cc1ccc(C(=O)NCC(NC(=O)OCc2ccccc2)C(=O)O)cc1` (stereo not shown) [Example 5-71] it is 0.3.
For the molecule `COCC(=O)N(CCc1nc2ccccc2[nH]1)Cc1ccc(C(=O)NCC(NC(=O)OCc2ccccc2)C(=O)O)cc1` (stereo not shown) [Example 5-72], the “SPECIFICITY αIIb β3/αvβ3 (specificity index)” value is listed as 0.5.
`O=C(NC(CNC(=O)c1ccc(CN(CCc2nc3ccccc3[nH]2)C(=O)CCc2ccccc2)cc1)C(=O)O)OCc1ccccc1` (stereo not shown) [Example 5-73]: the “SPECIFICITY αIIb β3/αvβ3 (specificity index)” value was 0.7.
The figure for `O=C(NC(CNC(=O)c1ccc(CN(CCc2nc3ccccc3[nH]2)C(=O)CCC2CCCC2)cc1)C(=O)O)OCc1ccccc1` (stereo not shown) [Example 5-74] is 0.6; for `CC(NCc1ccc(C(=O)NC[C@H](NC(=O)OCc2ccccc2)C(=O)O)cc1)c1nc2ccccc2[nH]1` (stereo partly shown) [Example 5-75] it is 10.2.
With `CC(=O)N(Cc1ccc(C(=O)NC[C@H](NC(=O)OCc2ccccc2)C(=O)O)cc1)C(C)c1nc2ccccc2[nH]1` (stereo partly shown) [Example 5-76], the “SPECIFICITY αIIb β3/αvβ3 (specificity index)” value is recorded as 6.7.
Next, `COCC(=O)N(Cc1ccc(C(=O)NC[C@H](NC(=O)OCc2ccccc2)C(=O)O)cc1)C(C)c1nc2ccccc2[nH]1` (stereo partly shown) [Example 5-77]: 12.4.
The figure for `CC(c1nc2ccccc2[nH]1)N(Cc1ccc(C(=O)NC[C@H](NC(=O)OCc2ccccc2)C(=O)O)cc1)C(=O)CCc1ccccc1` (stereo partly shown) [Example 5-78] is 33.9; for `CC(c1nc2ccccc2[nH]1)N(Cc1ccc(C(=O)NC[C@H](NC(=O)OCc2ccccc2)C(=O)O)cc1)C(=O)CCC1CCCC1` (stereo partly shown) [Example 5-79] it is 19.0; for `COCC(=O)N(Cc1ccc(C(=O)NC[C@H](NS(=O)(=O)c2ccccc2)C(=O)O)cc1)Cc1nc2ccccc2[nH]1` [Example 5-80] it is 11.
The figure for `O=C(NC[C@H](NS(=O)(=O)c1ccccc1)C(=O)O)c1ccc(CN(Cc2nc3ccccc3[nH]2)C(=O)NC2CCCCC2)cc1` [Example 5-81] is 8.0.
For the molecule `CCCCOC(=O)N[C@@H](CNC(=O)c1ccc(CN(Cc2nc3ccccc3[nH]2)C(=O)NC2CCCCC2)cc1)C(=O)O` [Example 5-82], the “SPECIFICITY αIIb β3/αvβ3 (specificity index)” value was 1259.
As for `CCCCOC(=O)N[C@@H](CNC(=O)c1ccc(CN(Cc2nc3ccccc3[nH]2)C(=O)Nc2ccccc2)cc1)C(=O)O` [Example 5-83], the “SPECIFICITY αIIb β3/αvβ3 (specificity index)” value worked out at 1689.
Turning to `CCCCOC(=O)N[C@@H](CNC(=O)c1ccc(CN(Cc2nc3ccccc3[nH]2)C(=O)NC(C)C)cc1)C(=O)O` [Example 5-84], the “SPECIFICITY αIIb β3/αvβ3 (specificity index)” value was 712.
Regarding `CCCCOC(=O)N[C@@H](CNC(=O)c1ccc(CN(Cc2nc3ccccc3[nH]2)C(=O)NC(C)(C)C)cc1)C(=O)O` [Example 5-85], the “SPECIFICITY αIIb β3/αvβ3 (specificity index)” value is on record as 1223.
On to `CCCCOC(=O)N[C@@H](CNC(=O)c1ccc(CN(Cc2nc3ccccc3[nH]2)C(=O)NCC(=O)OCC)cc1)C(=O)O` [Example 5-86, N^3-[4-[(benzimnidazol-2-yl)methyl][[(ethoxycarbonylmethyl)amino]-carbonyl]aminomethylbenzoyl]-N^2-(n-butoxycarbonyl)-L-2,3-diaminopropionic acid], for which the “SPECIFICITY αIIb β3/αvβ3 (specificity index)” value stood at 793.
Next, `CCCCOC(=O)N[C@@H](CNC(=O)c1ccc(CN(Cc2nc3ccccc3[nH]2)C(=O)N[C@@H](CCSC)C(=O)OCC)cc1)C(=O)O` [Example 5-87]: 1569.
The figure for `CCCCOC(=O)N[C@@H](CNC(=O)c1ccc(CN(Cc2nc3ccccc3[nH]2)C(=O)Nc2ccc(F)cc2)cc1)C(=O)O` [Example 5-88] is 1657.
The figure for `CCCCOC(=O)N[C@@H](CNC(=O)c1ccc(CN(Cc2nc3ccccc3[nH]2)C(=O)N[C@@H](C)C(=O)OCC)cc1)C(=O)O` [Example 5-89] is 1094.
As for `CCCCOC(=O)N[C@@H](CNC(=O)c1ccc(CN(Cc2nc3ccccc3[nH]2)C(=O)N[C@H](C(=O)OCC)C(C)C)cc1)C(=O)O` [Example 5-90], the “SPECIFICITY αIIb β3/αvβ3 (specificity index)” value was 1697.
The figure for `CCCCOC(=O)N[C@@H](CNC(=O)c1ccc(CN(Cc2nc3ccccc3[nH]2)C(=O)Nc2ccc(C(=O)OCC)cc2)cc1)C(=O)O` [Example 5-91] is 1183.
Consider `Cn1c(CN(Cc2ccc(C(=O)NC[C@H](NC(=O)OCc3ccccc3)C(=O)O)cc2)C(=O)NC2CCCCC2)nc2ccccc21` [Example 5-92], for which the “SPECIFICITY αIIb β3/αvβ3 (specificity index)” value is 174.
Next, `CC(C)NC(=O)N(Cc1ccc(C(=O)NC[C@H](NC(=O)OCc2ccccc2)C(=O)O)cc1)Cc1nc2ccccc2n1C` [Example 5-93]: 124; `O=C(N[C@@H](CNC(=O)c1ccc(CN(Cc2nc3cc(Cl)ccc3[nH]2)C(=O)NC2CCCCC2)cc1)C(=O)O)OCc1ccccc1` [Example 5-94]: 399.
For the molecule `CC(C)NC(=O)N(Cc1ccc(C(=O)NC[C@H](NC(=O)OCc2ccccc2)C(=O)O)cc1)Cc1nc2cc(Cl)ccc2[nH]1` [Example 5-95], the “SPECIFICITY αIIb β3/αvβ3 (specificity index)” value was 775.
The figure for `O=C(O)CNC(=O)N(Cc1ccc(C(=O)NC[C@H](NC(=O)OCc2ccccc2)C(=O)O)cc1)Cc1nc2ccccc2[nH]1` [Example 5-96, N^3-[4-[(Benzimidazol-2-yl)methyl][[(carboxymethyl)amino]carbonyl]aminomethylbenzoyl]-N^2 -Cbz-L-2,3-diaminopropionic acid] is 528; for `CCCCOC(=O)N[C@@H](CNC(=O)c1ccc(CN(Cc2nc3ccccc3[nH]2)C(=O)NCC(=O)O)cc1)C(=O)O` [Example 5-97, N^3-[4-[(Benzimidazol-2-yl)methyl][[(carboxymethyl)amino]carbonyl]aminomethylbenzoyl]-N^2-(n-butoxycarbonyl)-L-2,3-diaminopropionic acid] it is 2600.
